Laboratory results reported in PubChem BioAssay (NCI).
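Grown in 96-well plates, cells were treated for 48 hours with each compound at five concentrations. Insufficient inhibition: endpoint recorded as highest concentration tested. GI50 = concentration required for 50% inhibition of growth. TGI marks complete inhibition of growth.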

Columns and labels:
Experiment in all cases: NCI anticancer screen, dose series, 48 h
PC-3 prostate = test system: PC-3 prostate
A498 renal = test system: A498 renal
SF-295 CNS = test system: SF-295 CNS
U251 CNS = test system: U251 CNS
UACC-62 melanoma = test system: UACC-62 melanoma
SW-620 colon = test system: SW-620 colon
SR leukemia = test system: SR leukemia
NCI-H23 lung = test system: NCI-H23 lung
786-0 renal = test system: 786-0 renal
KM20L2 colon = test system: KM20L2 colon
DMS 273 small cell lung = test system: DMS 273 small cell lung
DLD-1 colon = test system: DLD-1 colon

COc1ccc2c(c1)c(-c1nc(-c3c[nH]c4ncccc34)cs1)cn2CCCCN1CCCCC1
GI50 (PC-3 prostate): 1.52 µM | TGI (PC-3 prostate): 2.93 µM | GI50 (A498 renal): 1.43 µM | TGI (A498 renal): 2.9 µM | GI50 (SF-295 CNS): 1.6 µM | TGI (SF-295 CNS): 3.02 µM

CCC(=O)OCN(C)c1nc(N(C)COC(=O)CC)nc(N(C)COC(=O)CC)n1
TGI (U251 CNS): > 100 µM | TGI (UACC-62 melanoma): 35.8 µM | TGI (PC-3 prostate): > 100 µM | TGI (A498 renal): > 100 µM | TGI (SW-620 colon): > 100 µM | TGI (SF-295 CNS): > 100 µM | TGI (SR leukemia): 71 µM | TGI (NCI-H23 lung): > 100 µM

O=C1c2ccccc2OCC12OC21C=CC(Cl)=CC1 (stereo not given)
TGI (U251 CNS): 44.4 µM | TGI (UACC-62 melanoma): > 100 µM | TGI (PC-3 prostate): > 100 µM | TGI (A498 renal): 55 µM | TGI (SW-620 colon): > 100 µM | TGI (SR leukemia): 17.5 µM | TGI (NCI-H23 lung): 37.9 µM

N[C@H](Cc1ccc2oc3cc(=O)c4ccccc4c-3nc2c1)C(=O)O
TGI (U251 CNS): > 100 µM | TGI (UACC-62 melanoma): 62 µM | TGI (A498 renal): > 100 µM | TGI (SW-620 colon): > 100 µM | TGI (786-0 renal): > 100 µM | TGI (SF-295 CNS): > 100 µM | TGI (SR leukemia): > 100 µM | TGI (NCI-H23 lung): > 100 µM

COC(=O)C1=C(OC)[C@H]2C#C/C=C\C#C[C@@H]3Nc4c(cc(O)c5c4C(=O)c4ccccc4C5=O)[C@]24O[C@@]34[C@H]1C
TGI (U251 CNS): < 0.0133 µM | TGI (UACC-62 melanoma): < 0.01 µM | TGI (PC-3 prostate): 0.138 µM | TGI (A498 renal): < 0.01 µM | TGI (SW-620 colon): 0.0486 µM | TGI (786-0 renal): < 0.01 µM | TGI (SF-295 CNS): < 0.01 µM | TGI (SR leukemia): < 0.01 µM | TGI (NCI-H23 lung): < 0.01 µM

Cc1nc2ccc(S(=O)(=O)Nc3nccs3)cc2c(=O)n1NS(=O)(=O)c1nccs1
TGI (U251 CNS): > 100 µM | TGI (UACC-62 melanoma): > 100 µM | TGI (PC-3 prostate): > 100 µM | TGI (A498 renal): > 100 µM | TGI (SW-620 colon): > 100 µM | TGI (SF-295 CNS): > 100 µM | TGI (NCI-H23 lung): > 100 µM

O=C(CBr)c1ccc2cc(Br)c3ccccc3c2c1
TGI (U251 CNS): > 100 µM | TGI (UACC-62 melanoma): 29.8 µM | TGI (PC-3 prostate): 53.1 µM | TGI (SW-620 colon): 74.4 µM | TGI (786-0 renal): > 100 µM | TGI (SF-295 CNS): 56.7 µM | TGI (SR leukemia): 46.3 µM | TGI (NCI-H23 lung): 35.3 µM

CCCCC1C=Cn2c(=O)oc3c(OC(C)C)c(C)c(O)c1c32 (stereo not given)
TGI (U251 CNS): 11 µM | TGI (UACC-62 melanoma): 2.97 µM | TGI (PC-3 prostate): 14.2 µM | TGI (A498 renal): 1.1 µM | TGI (SW-620 colon): 11.9 µM | TGI (SF-295 CNS): 7.16 µM | TGI (SR leukemia): 6.17 µM | TGI (NCI-H23 lung): 4.71 µM

O=C(N[C@@H](Cc1coc2ccccc12)B(O)O)[C@@H]1C[C@H]2CC[C@@H]1O2
GI50 (U251 CNS): 17.8 µM | TGI (U251 CNS): > 100 µM | GI50 (UACC-62 melanoma): 5.29 µM | TGI (UACC-62 melanoma): 55.2 µM | GI50 (PC-3 prostate): 41.2 µM | TGI (PC-3 prostate): > 100 µM | GI50 (A498 renal): 0.702 µM | TGI (A498 renal): 5.73 µM | GI50 (SW-620 colon): 3.3 µM | TGI (SW-620 colon): > 100 µM | GI50 (SF-295 CNS): 3.93 µM | TGI (SF-295 CNS): 17.6 µM | GI50 (SR leukemia): 1.26 µM | TGI (SR leukemia): > 100 µM | GI50 (NCI-H23 lung): 9.18 µM | TGI (NCI-H23 lung): > 100 µM

C(=Nc1ccc2c(c1)Cc1ccccc1-2)c1ccccn1
TGI (U251 CNS): > 100 µM | TGI (UACC-62 melanoma): > 100 µM | TGI (PC-3 prostate): > 100 µM | TGI (A498 renal): > 100 µM | TGI (SW-620 colon): > 100 µM | TGI (786-0 renal): > 100 µM | TGI (SF-295 CNS): > 100 µM | TGI (SR leukemia): > 100 µM | TGI (NCI-H23 lung): > 100 µM

CN(C)CCCNc1ccc2ncn3c4ccc(O)cc4c(=O)c1c23
TGI (U251 CNS): 4.6 µM | TGI (UACC-62 melanoma): 13.5 µM | TGI (PC-3 prostate): 14.4 µM | TGI (KM20L2 colon): 14.4 µM | TGI (A498 renal): 7.6 µM | TGI (SW-620 colon): 16.4 µM | TGI (786-0 renal): 14.7 µM | TGI (SF-295 CNS): 15.6 µM | TGI (SR leukemia): 1.55 µM | TGI (NCI-H23 lung): 10.7 µM | TGI (DMS 273 small cell lung): 12.1 µM | TGI (DLD-1 colon): 16.5 µM

CCCn1cnc2c(SCc3ccc(Cl)cc3)nc(N)nc21
TGI (U251 CNS): 74.5 µM | TGI (UACC-62 melanoma): 52.8 µM | TGI (PC-3 prostate): 57.8 µM | TGI (A498 renal): 49.1 µM | TGI (SW-620 colon): > 100 µM | TGI (786-0 renal): > 100 µM | TGI (SF-295 CNS): 45.9 µM | TGI (SR leukemia): 34.8 µM | TGI (NCI-H23 lung): > 100 µM

CCCO[C@@H]1[C@@H](OC(C)=O)[C@@H](OC(C)=O)C(C)(C)/C=C/[C@H](C)C(=O)[C@@]2(OC(C)=O)C[C@@](C)(OC(C)=O)[C@H](OC(C)=O)[C@@H]2[C@H]2OC(=O)CC[C@@]12OC(=O)c1ccccc1
TGI (U251 CNS): > 25 µM | TGI (UACC-62 melanoma): > 25 µM | TGI (PC-3 prostate): > 25 µM | TGI (SW-620 colon): > 25 µM | TGI (SF-295 CNS): > 25 µM | TGI (NCI-H23 lung): > 25 µM

O=c1cc(CF)[nH]c(=S)[nH]1
TGI (U251 CNS): > 100 µM | TGI (UACC-62 melanoma): > 100 µM | TGI (PC-3 prostate): > 100 µM | TGI (A498 renal): > 100 µM | TGI (SW-620 colon): > 100 µM | TGI (786-0 renal): > 100 µM | TGI (SF-295 CNS): > 100 µM | TGI (SR leukemia): > 100 µM | TGI (NCI-H23 lung): > 100 µM

C=CCCC1(C)CCCNC1=S (stereo not given)
TGI (U251 CNS): > 100 µM | TGI (UACC-62 melanoma): > 100 µM | TGI (KM20L2 colon): > 100 µM | TGI (A498 renal): > 100 µM | TGI (SW-620 colon): > 100 µM | TGI (SF-295 CNS): > 100 µM | TGI (SR leukemia): > 100 µM | TGI (NCI-H23 lung): > 100 µM | TGI (DMS 273 small cell lung): > 100 µM | TGI (DLD-1 colon): > 100 µM

CNC(C)C(O)c1ccc2oc3cc(=O)c4ccccc4c-3nc2c1 (stereo not given)
TGI (U251 CNS): 22.4 µM | TGI (UACC-62 melanoma): 14.3 µM | TGI (PC-3 prostate): > 100 µM | TGI (A498 renal): 50.6 µM | TGI (SW-620 colon): > 100 µM | TGI (SF-295 CNS): 15.6 µM | TGI (NCI-H23 lung): > 100 µM

COc1ccc(C2COc3c(ccc(O)c3C)C2)cc1OC (stereo not given)
TGI (U251 CNS): > 200 µM | TGI (UACC-62 melanoma): > 200 µM | TGI (KM20L2 colon): > 200 µM | TGI (A498 renal): > 31.7 µM | TGI (SW-620 colon): > 200 µM | TGI (SF-295 CNS): > 176 µM | TGI (NCI-H23 lung): > 200 µM | TGI (DMS 273 small cell lung): 199 µM | TGI (DLD-1 colon): > 200 µM

CCOC(=O)c1sc2nc(SC)nc(Nc3ccc4c(c3)OCCO4)c2c1N
TGI (U251 CNS): 21.2 µM | TGI (UACC-62 melanoma): 23.5 µM | TGI (PC-3 prostate): 29.7 µM | TGI (A498 renal): 27.4 µM | TGI (SW-620 colon): > 100 µM | TGI (SF-295 CNS): 58.1 µM | TGI (SR leukemia): > 100 µM | TGI (NCI-H23 lung): 36.5 µM

C/C(=N\NC(=S)N1CCCC1)c1nc2ncccc2[nH]1
TGI (U251 CNS): 13.5 µM | TGI (UACC-62 melanoma): 11.2 µM | TGI (PC-3 prostate): > 100 µM | TGI (A498 renal): 27.1 µM | TGI (SW-620 colon): 64.4 µM | TGI (786-0 renal): 21.7 µM | TGI (SF-295 CNS): 22.6 µM | TGI (SR leukemia): > 100 µM | TGI (NCI-H23 lung): 22.1 µM
